Experimental findings from patent US5817840A, “Water soluble taxol derivatives” (The Scripps Research Institute, priority 1997, dated 1998) are described below.

Some results are limits rather than exact numbers.

Format in all cases: cell-based
Experiment [1] has as its system CHO (Chinese hamster ovary). As to the kind of experiment: Cytotoxicity (sulphorhodamine B), normal cell line, Table 1B. The note with it: Cricetulus griseus, 72 h.
Experimental: (§3) The cytotoxicities were determined using the sulphorhodamine B assay method (Skehan, P. et al. J. Nat. Canc. Inst. 82, 1107 (1990)).
In experiment [2] the test system is BALB/c 3T3 (normal mouse embryo). The description is as above. Particulars: BALB/c3T3, 72 h.
Experimental: as §3
The subject of experiment [3] is HT-29 (colon carcinoma). As to the kind of experiment: Cytotoxicity (sulphorhodamine B), cancer cell line, Table 1B. Particulars: Homo sapiens, HT-29, 72 h.
Experimental: as §3
Experiment [4] deals with L1210 (mouse leukaemia). Described as above. Particulars: L1210, 72 h.
Experimental: as §3
For experiment [5], the system named is CHO (Chinese hamster ovary). As to the kind of experiment: Cytotoxicity, Example 8. Particulars: Cricetulus griseus, 72 h. The protocol:
(§1) Tumor or normal cells were cultured in 96-well plates with the test compound in 200 μl of RPMI supplemented with 10% fetal bovine serum (Hyclone, Salt Lake City, Utah) at 37° C. in a humidified atmosphere containing 5% CO2 in air for 72 hours. Sulforhodamine B dissolved in 1% acetic acid was added, and the plates were incubated for 30 minutes at ambient temperature, washed with 1% acetic acid, and blotted. To the air-dried plates were added 100 μl of […] unbuffered TRIS base (pH 10.5) with shaking. The optical densities of the plates were measured with a microplate reader (Molecular Devices Thermomax) at 540 nm. The concentration of compound required to reduce the absorbance to 50% of control samples was recorded as IC50.
(§2) NHDF: Normal human dermal fibroblast (available from Clouelics Corp., San Diego, Calif.); HLF-1: Normal human diploid lung; W1-38; Normal human diploid lung; CHO; Chinese hamster ovary; SK-MEL-28: Melanoma; CAPAN-1: Pancreatic carcinoma; H322: lung carcinoma; MCF-7; Breast carcinoma; BT-549; Human breast ductal carcinoma; OVCAR-3: Human ovarian carcinoma; HT-29: Human adenocarcinoma, colon; SIHA: Human squamous carcinoma crvx; 786-0: Human perirenal cell adenocarci; PC-3: Human prostate adenocarcinoma; HL-60: Human promyelomic leukemia; MOLT-4: Human T-cell leukemia. All cell lines except NHDF are available from the American Tissue Culture Collection, Rockville, Md.

Experiment [6] has as its system OVCAR-3 (human ovarian carcinoma). The experiment is described as follows: Cytotoxicity, Example 8. Particulars: OVCAR-3, 72 h. The protocol:
as §1, §2

In experiment [7] the test system is SK-MEL-28 (melanoma). The experiment is described as follows: Cytotoxicity, Example 8. The note with it: Homo sapiens, SK-MEL-28, 72 h. As for the experimental part: as §1, §2
The subject of experiment [8] is CAPAN-1 (pancreatic carcinoma). As to the kind of experiment: Cytotoxicity, Example 8. The note with it: Homo sapiens, CAPAN-1, 72 h. As for the experimental part: as §1, §2
Experiment [9] concerns BT-549 (human breast ductal carcinoma). The experiment is described as follows: Cytotoxicity, Example 8. The note with it: BT-549, 72 h. The protocol:
as §1, §2

Experiment [10] has as its system MCF-7 (breast carcinoma). As to the kind of experiment: Cytotoxicity, Example 8. Particulars: Homo sapiens, MCF7, 72 h. The protocol: as §1, §2
Experiment [11] deals with HT-29 (human adenocarcinoma, colon). As to the kind of experiment: Cytotoxicity, Example 8. Particulars: HT-29, 72 h. As for the experimental part:
as §1, §2

Experiment [12] deals with H322 (lung carcinoma). The experiment is described as follows: Cytotoxicity, Example 8. The note with it: NCI-H322, 72 h. As for the experimental part:
as §1, §2

For experiment [13], the system named is NHDF (normal human dermal fibroblast). The experiment is described as follows: Cytotoxicity, Example 8. The note with it: 72 h. The protocol:
as §1, §2

Experiment [14] has as its system PC-3 (human prostate adenocarcinoma). The experiment is described as follows: Cytotoxicity, Example 8. The note with it: 72 h. The protocol:
as §1, §2

In experiment [15] the test system is HLF-1 (normal human diploid lung). As to the kind of experiment: Cytotoxicity, Example 8. Particulars: HLF1, 72 h. The protocol: as §1, §2
For experiment [16], the system named is S1HA (human squamous carcinoma crvx). As to the kind of experiment: Cytotoxicity, Example 8. The note with it: 72 h. The protocol:
as §1, §2

The test system of experiment [17] is 786-0 (human perirenal cell adenocarci). The experiment is described as follows: Cytotoxicity, Example 8. The note with it: 786-0, 72 h. As for the experimental part: as §1, §2
Experiment [18] concerns W1-38 (normal human diploid lung). The experiment is described as follows: Cytotoxicity, Example 8. Particulars: W138, 72 h. As for the experimental part: as §1, §2

For `CC(=O)O[C@H]1C(=O)[C@@]2(C)[C@H]([C@H](OC(=O)c3ccccc3)[C@]3(O)C[C@H](OC(=O)[C@H](OC(=O)CS(=O)(=O)CC(=O)O)[C@@H](NC(=O)c4ccccc4)c4ccccc4)C(C)=C1C3(C)C)[C@]1(OC(C)=O)CO[C@@H]1C[C@@H]2O` [Compound 5], the IC50 in experiment [1] was 100 µM; in [2] it was 10 µM; in experiment [3], less than 0.001 µM; in [4] it was 10 µM; in experiment [5] it was 100 µM; in [6], 0.098 µM. Besides, the IC50 came to 100 µM in experiment [7]; 0.19 µM in [8]; 0.098 µM in experiment [9]; 61 µM in [10]; 0.098 µM in [11]; 5 µM in [12]. Moreover, the IC50 was found to be 0.19 µM in experiment [13]; 50 µM in experiment [14]; 13 µM in experiment [15]; 50 µM in experiment [16]; 0.13 µM in [17]; 13 µM in experiment [18].
